Like-named read-outs stand apart in the source and are kept apart here. Where a SMILES comes first, the peptide text is derived from it. Where no end group is shown, it is not given here. [ ]: non-standard residue; d: D form. The star is where a group is joined. Hexanoyl = CCCCCC(=O)*; Aib = CC(C)(N)C(=O)O
How the values were obtained:
human PAC1 = molecular target: T1, human PAC1 (Homo sapiens, UniProt P41586); test: Filter binding assay, membranes of cells transiently transfected with human PAC1, 125I-labeled PACAP-27 tracer (Table 2); design: expressed in transfected cells
T1 sequence (P41586 21-468): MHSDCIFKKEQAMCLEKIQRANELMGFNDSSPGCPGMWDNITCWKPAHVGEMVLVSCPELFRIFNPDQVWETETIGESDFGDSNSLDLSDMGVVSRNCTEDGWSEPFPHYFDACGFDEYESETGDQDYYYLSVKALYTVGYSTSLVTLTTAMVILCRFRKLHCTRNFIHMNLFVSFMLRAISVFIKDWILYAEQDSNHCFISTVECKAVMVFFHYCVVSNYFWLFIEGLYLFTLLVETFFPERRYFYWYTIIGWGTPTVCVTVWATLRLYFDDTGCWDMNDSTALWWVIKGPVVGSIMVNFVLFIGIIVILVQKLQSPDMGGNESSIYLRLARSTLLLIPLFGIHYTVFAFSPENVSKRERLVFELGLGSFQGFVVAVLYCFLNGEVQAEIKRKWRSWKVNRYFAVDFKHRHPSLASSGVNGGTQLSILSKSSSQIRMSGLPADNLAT
Protocol: (§1) For this assay, the solutions and equipment include:
(§2) Presoak solution: 0.5% Polyethyleneamine in Aqua dest.
(§3) Buffer for flushing filter plates: 25 mM HEPES pH 7.4
(§4) Blocking buffer: 25 mM HEPES pH 7.4; 0.2% protease free BSA
(§5) Assay buffer: 25 mM HEPES pH 7.4; 0.5% protease free BSA
(§6) Dilution and assay plate: PS-Microplate, U form
(§7) Filtration Plate Multiscreen FB Opaque Plate; […] Type B Glasfiber filter
(§8) In order to prepare the filter plates, aspirate the presoak solution by vacuum filtration. Flush the plates twice with 200 μL flush buffer. Add 200 μL blocking buffer to the filter plate. The filter plate is then incubated […] for 1 hour at room temperature.
(§9) Fill the assay plate with 25 μL assay buffer, 25 μL membranes (2.5 μg) suspended in assay buffer, 25 μL compound (agonist) in assay buffer, and 25 μL tracer (about 40000 cpm) in assay buffer. Incubate the filled plate for 1 hour with shaking.
(§10) Conduct the transfer from assay plate to filter plate. Aspirate the blocking buffer by vacuum filtration and wash two times with flush buffer. Transfer 90 μL from the assay plate to the filter plate. Aspirate the 90 μL transferred from assay plate and wash three times with 200 μL flush buffer. Remove the plastic support. Dry for 1 hour at 60° C. Add 30 μL Microscint. Perform the count.

human VPAC1 = molecular target: T2, human VPAC1 (Homo sapiens, UniProt P32241); test: Filter binding assay, membranes of cells transiently transfected with human VPAC1, 125I-labeled VIP tracer (Table 2); design: expressed in transfected cells
T2 sequence (P32241 31-457): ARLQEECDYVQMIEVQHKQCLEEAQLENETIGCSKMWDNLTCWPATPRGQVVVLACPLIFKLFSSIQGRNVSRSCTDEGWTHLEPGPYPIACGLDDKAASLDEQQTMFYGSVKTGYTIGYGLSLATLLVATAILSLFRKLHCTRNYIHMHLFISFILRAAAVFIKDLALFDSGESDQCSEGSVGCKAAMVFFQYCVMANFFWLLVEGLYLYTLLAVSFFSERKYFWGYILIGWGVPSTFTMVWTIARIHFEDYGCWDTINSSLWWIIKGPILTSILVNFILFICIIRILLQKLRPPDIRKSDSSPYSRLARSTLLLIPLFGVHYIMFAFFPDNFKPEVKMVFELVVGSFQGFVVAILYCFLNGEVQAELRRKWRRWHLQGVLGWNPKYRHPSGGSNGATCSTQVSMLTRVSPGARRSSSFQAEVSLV
Protocol: as §1, §2, §3, §4, §5, §6, §7, §8, §9, §10

human VPAC2 [1] = molecular target: T3, human VPAC2 (Homo sapiens, UniProt P41587); test: Filter binding assay, membranes of stable VPAC2 cell line, 125I-labeled VIP tracer (Table 2)
T3 construct: expressed in transfected cells
T3 sequence (P41587 24-438): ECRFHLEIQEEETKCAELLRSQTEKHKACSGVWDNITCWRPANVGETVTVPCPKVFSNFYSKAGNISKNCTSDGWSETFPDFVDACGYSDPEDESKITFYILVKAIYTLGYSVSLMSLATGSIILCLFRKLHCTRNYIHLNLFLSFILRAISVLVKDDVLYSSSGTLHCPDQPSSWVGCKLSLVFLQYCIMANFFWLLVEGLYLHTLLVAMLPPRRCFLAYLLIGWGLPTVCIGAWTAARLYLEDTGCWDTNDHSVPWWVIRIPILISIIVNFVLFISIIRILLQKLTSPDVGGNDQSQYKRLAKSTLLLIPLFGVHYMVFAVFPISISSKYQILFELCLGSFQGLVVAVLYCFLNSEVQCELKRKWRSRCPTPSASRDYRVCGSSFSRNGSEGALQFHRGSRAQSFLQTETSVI
Protocol: as §1, §2, §3, §4, §5, §6, §7, §8, §9, §10

human VPAC2 [2] = molecular target: T3, human VPAC2; test: Alpha screen cAMP in vitro potency, human VPAC2 receptor; assay type: cell-based
Protocol: Alpha screen: Cells are washed in the culture flask once with PBS. Then, the cells are rinsed with enzyme free dissociation buffer. The dissociated cells are removed. The cells are then spun down and washed in stimulation buffer. For each data point, 50,000 cells suspended in stimulation buffer are used. To this buffer, Alpha screen acceptor beads are added along with the stimuli. This mixture is incubated for 60 minutes. Lysis buffer and Alpha screen donor beads are added and are incubated for 60 to 120 minutes. The Alpha screen signal (indicative of intracellular cAMP levels) is read in a suitable instrument (e.g. AlphaQuest from Perkin-Elmer). Steps including Alpha screen donor and acceptor beads are performed in reduced light.

[3] = read-out: Human PAC1 Receptor Binding
[4] = read-out: Human VPAC1 Receptor Binding
[5] = read-out: Human VPAC2 Receptor Binding
[6] = cAMP generation, single result from two analyses performed in a single run, read-out: Human VPAC2 Receptor: Alpha Screen EC50

Row | Compound | IC50 (human PAC1; [3]) | IC50 (human VPAC1; [4]) | IC50 (human VPAC2 [1]; [5]) | EC50 (human VPAC2 [2]; [6]) | IC50 (human PAC1) | IC50 (human VPAC1) | IC50 (human VPAC2 [1]) | EC50 (human VPAC2 [2])
1 | Hexanoyl-HSDAVFTDNYTRLLAQLALQKYLQSIKNKRYGGPSSGAPPPS [Agonist P195] | 139 nM | > 3000 nM | 2.34 nM | 0.25 nM |  |  |  | 
2 | Hexanoyl-HSDAVFTDNYTRLRKQVAAKKYLQQIKNKRYGGPSSGAPPPS [Agonist P124] | 264 nM | 211 nM | 0.2 nM | 0.09 nM |  |  |  | 
3 | Hexanoyl-HSDAVFTDNYTRLRKQVAAKKYLQTIKNKRYGGPSSGAPPPS [Agonist P115] | 190 nM | 267 nM | 0.1 nM | 0.2 nM |  |  |  | 
4 | Hexanoyl-HSDAVFTDNYTRLRKQVAAKKYLQYIKNKRYGGPSSGAPPPS [Agonist P127] | 209 nM | 290 nM | 0.23 nM | 0.22 nM |  |  |  | 
5 | Hexanoyl-HSDAVFTDNYTRLRKQVAAKKYLQSVKNKRYGGPSSGAPPPS [Agonist P109] | 257 nM | 274 nM | 0.11 nM | 0.22 nM |  |  |  | 
6 | Hexanoyl-HSDAVFTDNYTRLRKQVAAKKYLQ[Aib]IKNKRYGGPSSGAPPPS [Agonist P187] | 296 nM | 134 nM | 0.17 nM | 0.4 nM |  |  |  | 
7 | Hexanoyl-HSDAVFTDNYTRLRKQVAAKKYLQLIKNKRYGGPSSGAPPPS [Agonist P114] | 188 nM | 171 nM | 0.56 nM | 0.14 nM |  |  |  | 
8 | Hexanoyl-H[Aib]DAVFTDNYTRLRKQVAAKKYLQSIKNKRYGGPSSGAPPPS [Agonist P166] | 127 nM | 248 nM | 0.46 nM | 0.15 nM |  |  |  | 
9 | CCCCCC(=O)N[C@@H](Cc1c[nH]cn1)C(=O)N[C@@H](CO)C(=O)N[C@@H](CC(=O)O)C(=O)N[C@@H](C)C(=O)N[C@H](C(=O)N[C@@H](Cc1ccccc1)C(=O)N[C@H](C(=O)N[C@@H](CC(=O)O)C(=O)N[C@@H](CC(N)=O)C(=O)N[C@@H](Cc1ccc(O)cc1)C(=O)N[C@H](C(=O)N[C@@H](CCCNC(=N)N)C(=O)N[C@@H](CC(C)C)C(=O)N[C@@H](CCCNC(=N)N)C(=O)N[C@@H](CCCCN)C(=O)N[C@@H](CCC(N)=O)C(=O)N[C@H](C(=O)N[C@@H](C)C(=O)N[C@@H](C)C(=O)N[C@@H](CCCCN)C(=O)N[C@@H](CCCCN)C(=O)N[C@@H](Cc1ccc(O)cc1)C(=O)N[C@@H](CC(C)C)C(=O)N[C@@H](CCC(N)=O)C(=O)N[C@@H](CO)C(=O)N[C@H](C(=O)N[C@@H](CCCCN)C(=O)N[C@@H](CC(N)=O)C(=O)NCC(=O)NCC(=O)N1CCC[C@H]1C(=O)N[C@@H](CO)C(=O)N[C@@H](CO)C(=O)NCC(=O)N[C@@H](C)C(=O)N1CCC[C@H]1C(=O)N1CCC[C@H]1C(=O)N1CCC[C@H]1C(=O)N[C@@H](CO)C(=O)O)[C@@H](C)CC)C(C)C)[C@@H](C)O)[C@@H](C)O)C(C)C [Agonist P154] (Hexanoyl-HSDAVFTDNYTRLRKQVAAKKYLQSIKNGGPSSGAPPPS-OH; C-terminus assumed) | 1960 nM | 141 nM | 0.31 nM | 0.18 nM |  |  |  | 
10 | Hexanoyl-HSDAVFTDNYTRLRRQVAARRYLQSIRNRRYGGPSSGAPPPS [Agonist P98] | 96.3 nM | 69 nM | 0.17 nM | 0.15 nM |  |  |  | 
11 | Hexanoyl-HSDAVFTDNYTRLRKQVAAKKYLQWIKNKRYGGPSSGAPPPS [Agonist P117] | 243 nM | 442 nM | 0.51 nM | 0.2 nM |  |  |  | 
12 | Hexanoyl-HSDAVFTDNYTRLRKQVAAKKFLQSIKNKRYGGPSSGAPPPS [Agonist P130] | 444 nM | 233 nM | 0.43 nM | 0.77 nM |  |  |  | 
13 | MHSDAVFTDNYTRLLAKLALQKYLQSIKNKRYGGPSSGAPPPS [Agonist P140] |  |  |  |  | 485 nM | 1140 nM | 1.94 nM | 0.07 nM
14 | Hexanoyl-HSEAVFTDNYTRLRKQVAAKKYLQSIKNKRYGGPSSGAPPPS [Agonist P224] | 210 nM | 208 nM | 0.35 nM | 0.14 nM |  |  |  | 
15 | Hexanoyl-HSDAVFTDNYTRLRKQVAAKKYLQSWKNKRYGGPSSGAPPPS [Agonist P110] | 321 nM | 425 nM | 0.1 nM | 0.13 nM |  |  |  | 
16 | Hexanoyl-HSDAVFTDNYTRLLAKVALQKYLQSIKNKRYGGPSSGAPPPS [Agonist P196] | > 25000 nM | 453 nM | 0.85 nM | 0.23 nM |  |  |  | 
17 | Hexanoyl-HSDAVFTDNYTRLRKQVAAKKYLQSIKNKKGGPSSGAPPPS [Agonist P121] | 253 nM | 169 nM | 0.19 nM | 0.1 nM |  |  |  | 
18 | Hexanoyl-HSDAVFTDNYTKLKKQVAAKKYLQSIKNKKYGGPSSGAPPPS [Agonist P103] | 333 nM | 228 nM | 0.08 nM | 0.12 nM |  |  |  | 
19 | Hexanoyl-HSDAVFTDNYTRLRKQVAAKKYLQIIKNKRYGGPSSGAPPPS [Agonist P113] | 189 nM | 293 nM | 0.69 nM | 0.26 nM |  |  |  | 
20 | CCCCCC(=O)N[C@@H](Cc1c[nH]cn1)C(=O)N[C@@H](CO)C(=O)N[C@@H](CC(=O)O)C(=O)N[C@@H](C)C(=O)N[C@H](C(=O)N[C@@H](Cc1ccccc1)C(=O)N[C@H](C(=O)N[C@@H](CC(=O)O)C(=O)N[C@@H](CC(N)=O)C(=O)N[C@@H](Cc1ccc(O)cc1)C(=O)N[C@H](C(=O)N[C@@H](CCCNC(=N)N)C(=O)N[C@@H](CC(C)C)C(=O)N[C@@H](CCCNC(=N)N)C(=O)N[C@@H](CCCCN)C(=O)N[C@@H](CCC(N)=O)C(=O)N[C@H](C(=O)N[C@@H](C)C(=O)N[C@@H](C)C(=O)N[C@@H](CCCCN)C(=O)N[C@@H](CCCCN)C(=O)N[C@@H](Cc1ccc(O)cc1)C(=O)N[C@@H](CC(C)C)C(=O)N[C@@H](CCC(N)=O)C(=O)N[C@@H](CO)C(=O)N[C@H](C(=O)N[C@@H](CCCCN)C(=O)N[C@@H](CCC(N)=O)C(=O)N[C@@H](CCCCN)C(=O)NCC(=O)NCC(=O)N1CCC[C@H]1C(=O)N[C@@H](CO)C(=O)N[C@@H](CO)C(=O)NCC(=O)N[C@@H](C)C(=O)N1CCC[C@H]1C(=O)N1CCC[C@H]1C(=O)N1CCC[C@H]1C(=O)N[C@@H](CO)C(=O)O)[C@@H](C)CC)C(C)C)[C@@H](C)O)[C@@H](C)O)C(C)C [Agonist P270] (Hexanoyl-HSDAVFTDNYTRLRKQVAAKKYLQSIKQKGGPSSGAPPPS-OH; C-terminus assumed) | 436 nM | 110 nM | 0.15 nM | 0.13 nM |  |  |  | 
21 | Hexanoyl-HSDAVFTDNYTRLRKQVAGKKYLQSIKNKRYGGPSSGAPPPS [Agonist P275] | 630 nM | 558 nM | 0.38 nM | 0.32 nM |  |  |  | 

Reference: patent publication US20080026996A1, “Selective Vpac2 Receptor Reptide Agonists” (ELI LILLY AND COMPANY, priority 2004, published 2008)
